Measurements published in US11492347B2 (ENYO PHARMA, priority 2018, dated 2022).

What follows are molecules tested on H1N1 (influenza A/New Caledonia/20/99) (assay: microbe, parasite or virus in culture). Conditions: H1N1, A549, 48 h.
Type: cell-based
`Cn1cc(C(=O)Nc2sc3c(c2C(=O)O)CC(C)(C)CC3)cn1` [#202, 5,5-Dimethyl-2-[(1-methylpyrazole-4-carbonyl)amino]-6,7-dihydro-4H-benzothiophene-3-carboxylic acid] showed an IC50 of 0.9 µM.
`CC1(C)CCc2c(sc(NC(=O)c3cccc(N4CCOCC4)c3)c2C(=O)O)C1` [#203, 6,6-Dimethyl-2-[(3-morpholinobenzoyl)amino]-5,7-dihydro-4H-benzothiophene-3-carboxylic acid] showed an IC50 of 0.13 µM.
Work on `CC1(C)CCc2c(sc(NC(=O)c3ccc(N4CCOCC4)nc3)c2C(=O)O)C1` [#204, 6,6-Dimethyl-2-[(6-morpholinopyridine-3-carbonyl)amino]-5,7-dihydro-4H-benzothiophene-3-carboxylic acid] yielded an IC50 of 0.26 µM.
In the case of `CC1(C)Cc2c(sc(NC(=O)c3ccncn3)c2C(=O)O)C(C)(C)C1` [#205, 5,5,7,7-Tetramethyl-2-(pyrimidine-4-carbonylamino)-4,6-dihydrobenzothiophene-3-carboxylic acid], the IC50 is reported as 0.74 µM.
`CC1(C)CCc2c(sc(NC(=O)c3cnc(N4CCOCC4)nc3)c2C(=O)O)C1` [#208, 6,6-Dimethyl-2-[(2-morpholinopyrimidine-5-carbonyl)amino]-5,7-dihydro-4H-benzothiophene-3-carboxylic acid] gave an IC50 of 0.74 µM.
Work on `CC1(C)CCc2sc(NC(=O)c3cnc(N4CCOCC4)nc3)c(C(=O)O)c2C1` [#209, 5,5-Dimethyl-2-[(2-morpholinopyrimidine-5-carbonyl)amino]-6,7-dihydro-4H-benzothiophene-3-carboxylic acid] yielded an IC50 of 0.82 µM.
Molecule `Cn1cc(C(=O)Nc2sc3c(c2C(=O)O)CCC(C)(C)C3)cn1` [#212, 6,6-Dimethyl-2-[(1-methylpyrazole-4-carbonyl)amino]-5,7-dihydro-4H-benzothiophene-3-carboxylic acid] has an IC50 of 0.9 µM.
For `CC1(C)CCc2sc(NC(=O)c3cccc(N4CCOCC4)n3)c(C(=O)O)c2C1` [#213, 5,5-Dimethyl-2-[(6-morpholinopyridine-2-carbonyl)amino]-6,7-dihydro-4H-benzothiophene-3-carboxylic acid], the IC50 was 0.61 µM.
For `CC1(C)CCc2c(sc(NC(=O)c3cccc(N4CCOCC4)n3)c2C(=O)O)C1` [#219, 6,6-Dimethyl-2-[(6-morpholinopyridine-2-carbonyl)amino]-5,7-dihydro-4H-benzothiophene-3-carboxylic acid], the IC50 was 0.51 µM.
In the case of `CC1(C)CCc2sc(NC(=O)c3ccnc(N4CCOCC4)c3)c(C(=O)O)c2C1` [#221, 5,5-Dimethyl-2-[(2-morpholinopyridine-4-carbonyl)amino]-6,7-dihydro-4H-benzothiophene-3-carboxylic acid], the IC50 is reported as 0.38 µM.
`CC1(C)CCc2c(sc(NC(=O)c3ccnc(N4CCOCC4)c3)c2C(=O)O)C1` [#222, 6,6-Dimethyl-2-[(2-morpholinopyridine-4-carbonyl)amino]-5,7-dihydro-4H-benzothiophene-3-carboxylic acid] was tested, and the IC50 was 0.051 µM.
For `CC1(C)CCc2sc(NC(=O)c3cc[nH]n3)c(C(=O)O)c2C1` [#225, 5,5-Dimethyl-2-(1H-pyrazole-3-carbonylamino)-6,7-dihydro-4H-benzothiophene-3-carboxylic acid], the IC50 was 0.11 µM.
In the case of `COCCn1ccc(C(=O)Nc2sc3c(c2C(=O)O)CC(C)(C)CC3)n1` [#226, 2-[[1-(2-Methoxyethyl)pyrazole-3-carbonyl]amino]-5,5-dimethyl-6,7-dihydro-4H-benzothiophene-3-carboxylic acid], the IC50 is reported as 0.82 µM.
`CC1(C)CCc2sc(NC(=O)c3ccc(N4CCOCC4)nn3)c(C(=O)O)c2C1` [#227, 5,5-Dimethyl-2-[(6-morpholinopyridazine-3-carbonyl)amino]-6,7-dihydro-4H-benzothiophene-3-carboxylic acid] was tested, and the IC50 was 1.39 µM.
With `CC1(C)CCc2sc(NC(=O)c3ccn(CC4CCOCC4)n3)c(C(=O)O)c2C1` [#228, 5,5-Dimethyl-2-[[1-(tetrahydropyran-4-ylmethyl)pyrazole-3-carbonyl]amino]-6,7-dihydro-4H-benzothiophene-3-carboxylic acid] the IC50 was 0.9 µM.
`CC1(C)CCc2c(sc(NC(=O)c3ccc(N4CCOCC4)cn3)c2C(=O)O)C1` [#229, 6,6-Dimethyl-2-[(5-morpholinopyridine-2-carbonyl)amino]-5,7-dihydro-4H-benzothiophene-3-carboxylic acid] was tested, and the IC50 was 0.37 µM.
Work on `CC1(C)CCc2c(sc(NC(=O)c3cnc(N4CCOCC4)cn3)c2C(=O)O)C1` [#230, 6,6-Dimethyl-2-[(5-morpholinopyrazine-2-carbonyl)amino]-5,7-dihydro-4H-benzothiophene-3-carboxylic acid] yielded an IC50 of 0.42 µM.
`CC1(C)CCc2c(sc(NC(=O)c3ccc(F)cc3F)c2C(=O)O)C1` [Compound #17, 2-[(2,4-Difluorobenzoyl)amino]-6,6-dimethyl-5,7-dihydro-4H-benzothiophene-3-carboxylic acid] gave an IC50 of 0.26 µM.
Molecule `CC1(C)CCc2c(sc(NC(=O)c3ccc(F)cc3)c2C(=O)O)C1` [Compound #19, 2-[(4-Fluorobenzoyl)amino]-6,6-dimethyl-5,7-dihydro-4H-benzothiophene-3-carboxylic acid] has an IC50 of 0.11 µM.
`COc1cccc(C(=O)Nc2sc3c(c2C(=O)O)CCC(C)(C)C3)c1` [Compound #21, 2-[(3-Methoxybenzoyl)amino]-6,6-dimethyl-5,7-dihydro-4H-benzothiophene-3-carboxylic acid] was tested, and the IC50 was 0.0558 µM.
Molecule `CC1(C)CCc2c(sc(NC(=O)c3ccc(OC(F)F)cc3)c2C(=O)O)C1` [Compound #23, 2-[[4-(Difluoromethoxy)benzoyl]amino]-6,6-dimethyl-5,7-dihydro-4H-benzothiophene-3-carboxylic acid] has an IC50 of 0.08 µM.
For `CC1(C)CCc2c(sc(NC(=O)c3ccc(OC(F)(F)F)cc3)c2C(=O)O)C1` [Compound #24, 6,6-Dimethyl-2-[[4-(trifluoromethoxy)benzoyl]amino]-5,7-dihydro-4H-benzothiophene-3-carboxylic acid], the IC50 was 0.16 µM.
Molecule `COc1ccc(C(=O)Nc2sc3c(c2C(=O)O)CCC(C)(C)C3)nc1` [Compound #25, 2-[(5-Methoxypyridine-2-carbonyl)amino]-6,6-dimethyl-5,7-dihydro-4H-benzothiophene-3-carboxylic acid] has an IC50 of 0.09 µM.
`CC1(C)CCc2sc(NC(=O)c3ccccc3)c(C(=O)O)c2C1` [Compound #26, 2-Benzamido-5,5-dimethyl-6,7-dihydro-4H-benzothiophene-3-carboxylic acid] was tested, and the IC50 was 0.0849 µM.
In the case of `COc1ccc(C(=O)Nc2sc3c(c2C(=O)O)CC(C)(C)CC3)cc1OC` [Compound #27, 2-[(3,4-Dimethoxybenzoyl)amino]-5,5-dimethyl-6,7-dihydro-4H-benzothiophene-3-carboxylic acid], the IC50 is reported as 0.04 µM.
For `O=C(Nc1sc2c(c1C(=O)O)C1CCC2C1)c1ccccc1` (stereo not shown) [Compound #28, 2-Benzamido-4,5,6,7-tetrahydro-4,7-methanobenzo[b]thiophene-3-carboxylic acid], the IC50 was 1.27 µM.
`O=C(Nc1sc2c(c1C(=O)O)CCC1(CC1)C2)c1ccccc1` [Compound #29, 2-Benzamidospiro[5,7-dihydro-4H-benzothiophene-6,1′-cyclopropane]-3-carboxylic acid] was tested, and the IC50 was 0.09 µM.
Work on `COc1ccc(C(=O)Nc2sc3c(c2C(=O)O)CCC2(CC2)C3)cc1OC` [Compound #30, 2-[(3,4-Dimethoxybenzoyl)amino]spiro[5,7-dihydro-4H-benzothiophene-6,1′-cyclopropane]-3-carboxylic acid] yielded an IC50 of 0.07 µM.
